One test has as its target Bub1 (Homo sapiens, UniProt O43683). The test is described as follows: Formation-Assay: phosphorylation status of histone 2A by inhibition of kinase activity of Bub1. In kind it is cell-based. The following applies: Biological Assay 4.1: H2A Formation IC50, co-treatment with Nocodazole 1 μg/ml, 16 h. An outline of the steps: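 Cells co-treated 16 h with Nocodazole (1 μg/ml) and compound (3 nM–10 μM), then fixed and immunostained for phospho-H2A, read by infrared imaging (800 nm) normalised to cell stain (700 nm). Nocodazole-only set as 100%, untreated cells as 0%.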

In test [1] the target is T1, catalytic domain of human Bub1 (amino acids 704-1085) (Homo sapiens, UniProt O43683).
T1 construct: catalytic domain of human Bub1 (amino acids 704-1085); His6 (N); made in house; host or cells: Hi5 insect cells
The test is described as follows: Bub1 kinase assay (TR-FRET). In kind it is biochemical. Summed up:
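Compounds from 2 mM DMSO stocks, serially diluted 1:3.4, incubated with enzyme at 22° C for 60 min. Stopped with EDTA, then 1 h with streptavidin-XL665, anti-phosphoserine antibody and Eu-labelled anti-mouse IgG. Phosphorylated biotin-peptide read by TR-FRET; IC50 by 4-parameter logistic fit.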

Test [2] relates to HeLa human cervical tumor cells. The test is described as follows: Proliferation assay (HeLa+Paclitaxel).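 Further: compounds at 0.001-10 µM added 4 h after paclitaxel, 92 h exposure, absorbance normalized to zero-point plate (0%) and untreated cells (100%), IC50 from 4-parameter fit.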 The following applies: read-out: Biological Assay 3: HeLa + Paclitaxel IC50, 3 nM paclitaxel, crystal violet.
The next test deals with HeLa. Kind of test: Proliferation assay (HeLa cell line).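 Further: crystal violet staining of cell number, scaled between a plate stained before dosing (0%) and cells left untreated (100%), compounds tested at 0.001-10 µM, IC50 via 4-parameter fit.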 As to conditions: Homo sapiens, 96 h, read-out: Biological Assay 2: Proliferation assay (HeLa cell line) median IC50.
The mark [3] stands for this setting: 10 μM ATP, read-out: Biological Assay 1: Bub1 kinase assay median IC50.

Read-outs that look alike come from different tables or passages of the source.

T1 sequence (O43683 704-1085): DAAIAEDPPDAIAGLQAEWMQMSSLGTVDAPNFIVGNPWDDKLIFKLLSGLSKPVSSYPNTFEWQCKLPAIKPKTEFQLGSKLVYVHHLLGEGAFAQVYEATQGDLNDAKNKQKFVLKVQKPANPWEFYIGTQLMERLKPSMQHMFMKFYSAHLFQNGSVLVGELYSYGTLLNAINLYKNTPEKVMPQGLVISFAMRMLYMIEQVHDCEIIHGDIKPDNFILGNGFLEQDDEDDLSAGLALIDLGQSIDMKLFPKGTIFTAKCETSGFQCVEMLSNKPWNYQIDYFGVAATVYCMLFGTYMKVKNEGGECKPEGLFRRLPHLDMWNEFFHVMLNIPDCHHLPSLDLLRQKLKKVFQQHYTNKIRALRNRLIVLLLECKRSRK
Bub1, sequence (O43683 whole entry): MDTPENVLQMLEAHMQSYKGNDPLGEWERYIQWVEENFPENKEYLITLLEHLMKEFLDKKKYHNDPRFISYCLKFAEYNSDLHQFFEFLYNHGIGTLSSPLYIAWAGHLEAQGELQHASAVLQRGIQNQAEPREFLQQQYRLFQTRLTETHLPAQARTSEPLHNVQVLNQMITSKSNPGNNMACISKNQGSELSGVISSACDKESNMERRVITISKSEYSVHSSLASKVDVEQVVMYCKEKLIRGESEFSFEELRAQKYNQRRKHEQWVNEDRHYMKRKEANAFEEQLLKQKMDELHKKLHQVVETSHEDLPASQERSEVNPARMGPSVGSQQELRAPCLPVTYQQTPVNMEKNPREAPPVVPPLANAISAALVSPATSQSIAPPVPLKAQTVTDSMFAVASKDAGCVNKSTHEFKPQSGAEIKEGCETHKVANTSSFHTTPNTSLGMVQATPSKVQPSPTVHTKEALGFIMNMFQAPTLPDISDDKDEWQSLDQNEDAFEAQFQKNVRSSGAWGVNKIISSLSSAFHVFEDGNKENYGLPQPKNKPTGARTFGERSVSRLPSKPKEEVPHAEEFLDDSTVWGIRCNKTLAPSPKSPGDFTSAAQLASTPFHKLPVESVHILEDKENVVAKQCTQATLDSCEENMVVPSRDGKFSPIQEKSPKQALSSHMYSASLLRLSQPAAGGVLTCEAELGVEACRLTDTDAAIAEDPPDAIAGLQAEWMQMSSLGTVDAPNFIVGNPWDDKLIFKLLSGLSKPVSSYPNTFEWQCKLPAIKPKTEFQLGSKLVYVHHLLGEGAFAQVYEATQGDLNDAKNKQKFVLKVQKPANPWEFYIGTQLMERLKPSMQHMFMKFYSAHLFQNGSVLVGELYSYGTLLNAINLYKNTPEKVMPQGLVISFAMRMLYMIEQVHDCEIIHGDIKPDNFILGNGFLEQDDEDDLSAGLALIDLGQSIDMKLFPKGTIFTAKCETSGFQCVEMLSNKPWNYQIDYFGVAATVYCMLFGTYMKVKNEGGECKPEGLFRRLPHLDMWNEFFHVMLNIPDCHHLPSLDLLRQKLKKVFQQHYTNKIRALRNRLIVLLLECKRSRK

Regarding `CCOc1cc(F)c(Cn2nc(-c3nc(CN4CCOCC4)cc(Nc4ccncc4F)n3)c3ccccc32)c(F)c1` [Example 2-19-12, 2-[1-(4-ethoxy-2,6-difluorobenzyl)-1H-indazol-3-yl]-N-(3-fluoropyridin-4-yl)-6-(morpholin-4-ylmethyl)pyrimidin-4-amine], the IC50 at Bub1 is 63 nM; in test [1] (setting [3]), 11 nM; in test [2], 250 nM; in the test on HeLa it was 4000 nM.
For `CCOc1cc(F)c(Cn2nc(-c3nc4c(c(Nc5cc(C)ncn5)n3)CCC4)c3ccccc32)c(F)c1` [Example 2-21-1, 2-[1-(4-ethoxy-2,6-difluorobenzyl)-1H-indazol-3-yl]-N-(6-methylpyrimidin-4-yl)-6,7-dihydro-5H-cyclopenta[d]pyrimidin-4-amine], the IC50 amounted to 1900 nM on Bub1, 25 nM in test [1] (setting [3]), 98 nM in test [2] and 6000 nM with HeLa.
Consider `CCOc1cc(F)c(Cn2nc(-c3ncc(C4CCN(CC(F)(F)F)CC4)c(Nc4ccncc4OC)n3)c3ccccc32)c(F)c1` [Example 2-20-4, 2-[1-(4-ethoxy-2,6-difluorobenzyl)-1H-indazol-3-yl]-N-(3-methoxypyridin-4-yl)-5-[1-(2,2,2-trifluoroethyl)piperidin-4-yl]pyrimidin-4-amine], for which the IC50 on Bub1 stood at 31 nM; in test [1] (Biological Assay 1: Bub1 kinase assay median IC50, 10 μM ATP) it was 70 nM; in test [2], 66 nM; in the test with HeLa, 1100 nM.
Turning to `CCOc1cc(F)c(Cn2nc(-c3nc(CN4CCOCC4)cc(Nc4ccncc4)n3)c3ccccc32)c(F)c1` [Example 2-12-12, 2-[1-(4-ethoxy-2,6-difluorobenzyl)-1H-indazol-3-yl]-6-(morpholin-4-ylmethyl)-N-(pyridin-4-yl)pyrimidin-4-amine], the IC50 was 3.6 nM on Bub1, 6.8 nM in test [1] (setting [3]), less than 100 nM in test [2] and 3600 nM with HeLa.
In the case of `CCOc1cc(F)c(Cn2nc(-c3nc4c(c(Nc5ccncc5F)n3)CCC4)c3ccccc32)c(F)c1` [Example 2-14-1, 2-[1-(4-ethoxy-2,6-difluorobenzyl)-1H-indazol-3-yl]-N-(3-fluoropyridin-4-yl)-6,7-dihydro-5H-cyclopenta[d]pyrimidin-4-amine], the IC50 amounted to 2.8 nM at Bub1, 9.6 nM in test [1] (setting [3]), 680 nM in test [2] and 10000 nM in the test with HeLa.
`Cc1cc(Nc2nc(-c3nn(Cc4c(F)cc(OCCO)cc4F)c4ccccc34)nc3c2CCC3)c(C)cn1` [Example 2-6-20, 2-{4-[(3-{4-[(2,5-dimethylpyridin-4-yl)amino]-6,7-dihydro-5H-cyclopenta[d]pyrimidin-2-yl}-1H-indazol-1-yl)methyl]-3,5-difluorophenoxy} ethanol]: the IC50 on Bub1 was determined as 1.8 nM; in test [1] (setting [3]) it was 66 nM; in test [2], 140 nM; in the test on HeLa it was 3400 nM.

Values taken from US20170275270A1, “BENZYL SUBSTITUTED INDAZOLES” (Bayer Pharma Aktiengesellschaft, priority 2014, published 2017).
